# Experimental data reported in PubChem BioAssay AID1745844 (Carcinogenic Potency Database (CPDB), 2022).
# Active and inactive are the calls of the source. The rule behind the calls is not given here.
# Test system: rodent lifetime carcinogenesis bioassay, tumor incidence TD50
# Assay: carcinogenic potency in animals, long-term in vivo studies, CPDB compilation (AID 1745844)
compound,measurement,setting,value
CN1C(C(=O)Nc2ccccn2)=C(O)c2sc(Cl)cc2S1(=O)=O,carcinogen call,"rat, strain Sprague-Dawley, females, by gavage, site: any site (literature study), lesion: several types, types named in the paper, dosed 104 weeks, study length 104 weeks",negative (inactive)
same,carcinogen call,"rat, strain Sprague-Dawley, females, by gavage, site: kidney, lesion: one or several types, types not named, dosed 52 weeks, study length 52 weeks",negative (inactive)
same,TD50,"rat, strain Sprague-Dawley, females, by gavage, site: liver, lesion: hepatocellular adenoma, dosed 104 weeks, study length 104 weeks",13.2 mg/kg/day (inactive)
same,carcinogen call,"rat, strain Sprague-Dawley, males, by gavage, site: any site (literature study), lesion: several types, types named in the paper, dosed 104 weeks, study length 104 weeks",negative (inactive)
same,carcinogen call,"rat, strain Sprague-Dawley, males, by gavage, site: kidney, lesion: one or several types, types not named, dosed 52 weeks, study length 52 weeks",negative (inactive)
same,carcinogen call,"rat, strain Sprague-Dawley, males, by gavage, site: liver, lesion: several types, types named in the paper, dosed 104 weeks, study length 104 weeks",negative (inactive)
O=C(O)C1C2C=CC(C2)C1(C(=O)O)[N+](=O)[O-] (stereo not given),TD50,"mouse, strain B6C3F1, females, in drinking water, site: any site (literature study), lesion: several types, types named in the paper, dosed 104 weeks, study length 104 weeks",169 mg/kg/day
same,TD50,"mouse, strain B6C3F1, females, in drinking water, site: liver, lesion: hemangioma, dosed 104 weeks, study length 104 weeks",1240 mg/kg/day
same,TD50,"mouse, strain B6C3F1, females, in drinking water, site: liver, lesion: hyperplastic nodule, dosed 104 weeks, study length 104 weeks",3190 mg/kg/day
same,TD50,"mouse, strain B6C3F1, females, in drinking water, site: lung, lesion: papillary tumor, dosed 104 weeks, study length 104 weeks",5650 mg/kg/day
same,TD50,"mouse, strain B6C3F1, males, in drinking water, site: any site (literature study), lesion: several types, types named in the paper, dosed 104 weeks, study length 104 weeks",153 mg/kg/day
same,TD50,"mouse, strain B6C3F1, males, in drinking water, site: liver, lesion: hepatoma, dosed 104 weeks, study length 104 weeks",2640 mg/kg/day
same,TD50,"mouse, strain B6C3F1, males, in drinking water, site: lung, lesion: papillary tumor, dosed 104 weeks, study length 104 weeks",348 mg/kg/day
Nc1ccc2c(c1)oc1ccccc12,TD50,"rat, strain Wistar, males, in feed, site: any site (literature study), lesion: benign tumor, dosed 89 weeks, study length 89 weeks",1.57 mg/kg/day
same,TD50,"rat, strain Wistar, males, in feed, site: any site (literature study), lesion: malignant tumor, dosed 89 weeks, study length 89 weeks",2.48 mg/kg/day
same,TD50,"rat, strain Wistar, males, in feed, site: liver, lesion: hepatoma, dosed 89 weeks, study length 89 weeks",9.44 mg/kg/day
O=CC(O)C(O)C(O)C(O)COC1OC(COC2OC(CO)C(O)C(O)C2O)C(O)C(O)C1O (stereo not given),TD50,"rat, strain ACI, females, in feed, site: urinary bladder, lesion: one or several types, types not named, dosed 68 weeks, study length 68 weeks",1640 mg/kg/day (inactive)
same,TD50,"rat, strain ACI, males, in feed, site: urinary bladder, lesion: one or several types, types not named, dosed 68 weeks, study length 68 weeks",3190 mg/kg/day (inactive)
COc1ccc(CCN2CCC(Nc3nc4ccccc4n3Cc3ccc(F)cc3)CC2)cc1,TD50,"mouse, strain Swiss, females, in feed, site: any site (literature study), lesion: several types, types named in the paper, dosed 78 weeks, study length 78 weeks",164 mg/kg/day (inactive)
same,carcinogen call,"mouse, strain Swiss, females, in feed, site: liver, lesion: hepatocellular adenoma, dosed 78 weeks, study length 78 weeks",negative (inactive)
same,carcinogen call,"mouse, strain Swiss, females, in feed, site: lung, lesion: one or several types, types not named, dosed 78 weeks, study length 78 weeks",negative (inactive)
same,carcinogen call,"mouse, strain Swiss, males, in feed, site: any site (literature study), lesion: several types, types named in the paper, dosed 78 weeks, study length 78 weeks",negative (inactive)
same,TD50,"mouse, strain Swiss, males, in feed, site: liver, lesion: hepatocellular adenoma, dosed 78 weeks, study length 78 weeks",8770 mg/kg/day (inactive)
same,TD50,"mouse, strain Swiss, males, in feed, site: liver, lesion: hepatocellular carcinoma, dosed 78 weeks, study length 78 weeks",788 mg/kg/day (inactive)
same,carcinogen call,"mouse, strain Swiss, males, in feed, site: lung, lesion: one or several types, types not named, dosed 78 weeks, study length 78 weeks",negative (inactive)
same,carcinogen call,"rat, strain Charles River Crl:COBS(WI)BR, females, in feed, site: any site (literature study), lesion: several types, types named in the paper, dosed 105 weeks, study length 105 weeks",negative (inactive)
same,TD50,"rat, strain Charles River Crl:COBS(WI)BR, females, in feed, site: liver, lesion: neoplastic nodule, dosed 105 weeks, study length 105 weeks",309 mg/kg/day (inactive)
same,TD50,"rat, strain Charles River Crl:COBS(WI)BR, males, in feed, site: any site (literature study), lesion: several types, types named in the paper, dosed 105 weeks, study length 105 weeks",32.5 mg/kg/day (inactive)
same,carcinogen call,"rat, strain Charles River Crl:COBS(WI)BR, males, in feed, site: liver, lesion: neoplastic nodule, dosed 105 weeks, study length 105 weeks",negative (inactive)
O=NN1CCOC(O)C1 (stereo not given),TD50,"rat, strain Fischer 344, females, in drinking water, site: liver, lesion: hepatocellular carcinoma, dosed 50 weeks, study length 122 weeks",14.9 mg/kg/day (inactive)
